From patent US6673799B1, “Cyanophenyl derivative” (priority 1998, dated 2004)

Columns and labels:
[1] = target: T1, rat androgen receptor (Rattus norvegicus, UniProt P15207); assay: biochemical; details: 3H-mibolerone 1 nM, rat prostate cytosol; Ki calculated from IC50 by Cheng and Prusoff; read-out: Binding activity for rat androgen receptor (Ki = nM)
T1 construct: The cytosol fraction obtained in the step (1) was adjusted to a protein concentration of 1 mg/ml and used as a rat androgen receptor solution; from tissue; host or cells: rat ventral prostate gland cytosol fraction (male Wistar rats, castrated)
T1 sequence (P15207 1-902): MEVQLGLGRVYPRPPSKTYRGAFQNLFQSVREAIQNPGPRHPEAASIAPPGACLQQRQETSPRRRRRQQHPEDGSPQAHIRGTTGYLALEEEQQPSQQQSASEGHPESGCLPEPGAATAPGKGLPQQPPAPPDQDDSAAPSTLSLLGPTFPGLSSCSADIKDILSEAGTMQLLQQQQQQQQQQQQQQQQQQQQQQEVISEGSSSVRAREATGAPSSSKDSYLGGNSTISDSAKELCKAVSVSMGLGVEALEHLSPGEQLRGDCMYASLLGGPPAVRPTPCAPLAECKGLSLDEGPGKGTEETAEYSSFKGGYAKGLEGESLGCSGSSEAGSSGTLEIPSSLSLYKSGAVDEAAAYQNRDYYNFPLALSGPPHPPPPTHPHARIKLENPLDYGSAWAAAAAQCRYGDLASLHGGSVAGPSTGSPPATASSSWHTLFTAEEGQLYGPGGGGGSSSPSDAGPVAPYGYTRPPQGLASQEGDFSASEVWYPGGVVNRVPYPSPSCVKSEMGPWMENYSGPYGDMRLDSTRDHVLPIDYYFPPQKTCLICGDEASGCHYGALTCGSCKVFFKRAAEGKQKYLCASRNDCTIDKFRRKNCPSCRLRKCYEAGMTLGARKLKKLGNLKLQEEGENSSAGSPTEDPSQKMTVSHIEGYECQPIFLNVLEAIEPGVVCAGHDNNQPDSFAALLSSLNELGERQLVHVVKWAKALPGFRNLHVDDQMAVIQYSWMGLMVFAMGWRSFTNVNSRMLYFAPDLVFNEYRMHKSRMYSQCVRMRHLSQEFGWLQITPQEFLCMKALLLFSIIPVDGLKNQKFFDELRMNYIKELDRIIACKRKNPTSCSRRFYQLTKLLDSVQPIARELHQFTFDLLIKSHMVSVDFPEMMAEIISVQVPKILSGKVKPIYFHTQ

Row | Compound | melting point | Ki [1]
1 | C[C@@H]1CN(C(=O)Nc2ccc(F)cc2)[C@@H](C)CN1c1ccc(C#N)c(C(F)(F)F)c1 (relative stereo) | 200 to 203 °C | 
2 | C[C@@H]1CN(c2ccc(C#N)c(C(F)(F)F)c2)[C@@H](C)CN1C(=O)N1CC[S+]([O-])CC1 (relative stereo) | 173 to 175 °C | 
3 | CNC(=O)c1cc(NC(=O)N2C[C@H](C)N(c3ccc(C#N)c(C(F)(F)F)c3)C[C@H]2C)ccn1 [Example 13-1, (2R,5S)-4-(4-Cyano-3-trifluoromethylphenyl)-2,5-dimethyl-N-(2-methylcarbamoyl-4-pyridyl)piperazine-1-carboxamide] |  | 1.91 nM
4 | C[C@@H]1CN(c2ccc(C#N)c(C(F)(F)F)c2)[C@@H](C)CN1C(=O)Nc1ccnc(Br)c1 [Example 6-1, (2R,5S)-N-(2-Bromo-4-pyridyl)-4-(4-cyano-3-trifluoromethylphenyl)-2,5-dimethylpiperazine-1-carboxamide] |  | 7.56 nM
5 | C[C@@H]1CN(c2ccc(C#N)c(C(F)(F)F)c2)[C@@H](C)CN1C(=O)Nc1ccnc(F)c1 [Example 18-8, (2R,5S)-4-(4-Cyano-3-trifluoromethylphenyl)-N-(2-fluoro-4-pyridyl)-2,5-dimethylpiperazine-1-carboxamide] |  | 15.6 nM
6 | C[C@@H]1CN(c2ccc(C#N)c(C(F)(F)F)c2)[C@@H](C)CN1C(=O)Nc1ccnc(N)n1 [Example 21, (2R,5S)-N-(2-Amino-pyrimidin-4-yl)-4-(4-cyano-3-trifluoromethylphenyl)-2,5-dimethylpiperazine-1-carboxamide] |  | 1.81 nM
7 | C[C@@H]1CN(C(=O)NC(C)(C)c2ccccc2)[C@@H](C)CN1c1ccc(C#N)c(C(F)(F)F)c1 (relative stereo) | 152.5 to 153.5 °C | 
8 | C[C@@H]1CN(c2ccc(C#N)c(C(F)(F)F)c2)[C@@H](C)CN1C(=O)Nc1ccc(C#N)nc1 [Example 18-7, (2R,5S)-N-(6-Cyano-3-pyridyl)-4-(4-cyano-3-trifluoromethylphenyl)-2,5-dimethylpiperazine-1-carboxamide] | 220 to 222 °C | 6.66 nM
9 | CC1(C)CN(c2ccc(C#N)c(C(F)(F)F)c2)CN1C(=O)Nc1ccc(F)cc1 | 199 to 200 °C | 
10 | C[C@@H]1CN(C(=O)Nc2ccnc(N)c2)[C@@H](C)CN1c1ccc(C#N)c(C(F)(F)F)c1 (racemic) | 208 to 211 °C | 
11 | C[C@@H]1CN(c2ccc(C#N)c(C(F)(F)F)c2)[C@@H](C)CN1C(=O)Nc1ccc(F)nc1 | 163 to 165 °C | 
12 | CC(=O)Nc1nccc(NC(=O)N2C[C@@H](C)N(c3ccc(C#N)c(C(F)(F)F)c3)C[C@@H]2C)n1 (racemic) | 191 to 193 °C | 
13 | COc1ccc(NC(=O)N2C[C@H](C)N(c3ccc(C#N)c(C(F)(F)F)c3)C[C@H]2C)cn1 [Example 6-13, (2R,5S)-4-(4-Cyano-3-trifluoromethylphenyl)-N-(6-methoxy-3-pyridyl)-2,5-dimethylpiperazine-1-carboxamide] | 184 to 185 °C | 3.58 nM
